Reference: patent US20220160680A1, “MICROORGANISM MIXTURES, MOLECULES DERIVED THEREFROM, AND METHODS OF USE THEREOF” (B. G. Negev Technologies and Applications Ltd., at …, priority 2018, published 2022)
Entries after “also recorded” stand apart in the source; their conditions may differ.

Columns and labels:
V. cholerae toxin = test: GM1-ELISA cholerae toxin detection assay; assay type: cell-based, Vibrio cholerae
Procedure: GM1 (monosialotetrahexosylganglioside) was seeded and immobilized on a 96-well white/clear bottom microtiter plate (Greiner) microtiter plates with the following procedure: GM1 stock solution (2 mg/mL in PBS) was diluted with PBS (final conc. 10 μg/mL). 200 μL of the GM1 solution was added to each well and incubated at 37° C. without shaking for 4-16 hours. The plates were washed with PBS (×3). Bovine serum albumin (BSA) was dissolved in PBS (final conc. 4 mg/mL) and 200 μL of the BSA-PBS were added to each well and incubated at 37° C. without shaking for at least 4 hours. The plates were washed with PBS (×3) and were stored in fridge until use. VC1 wild-type strain with of the tested compounds (Tryptophol acetate and Tyrosol acetate both in concentration of 100 μM) and a control with bacteria only, were grown and incubated with aeration and shaking overnight in LB medium at 30° C. The cultures were spinned-down for 5 min at 5,000 rcf and the supernatant was taken and diluted 1:2 with a BSA-PBS 4 mg/mL solution. […] 100 μL of the luminol working solution were added to each well, the plate was shaken for 1.5-2 minutes and the luminescence was measured using a Microtiter Plate Reader (Varioskan Flash, Thermo). Luminescence values were normalized to the control.

[1] = test system: V. cholerae VC1 (WT) and MM920; test: V. cholerae biofilm modulation (CLSM, crystal violet); assay type: cell-based, Vibrio cholerae
Procedure: The various pathogenic indicator strains used in this study were V. cholerae strain MM920 (ACqsA AluxQ), Vibrio harveyi strain MM30 (LuxS, Tn5). To initiate biofilm formation, bacteria was grown in the absence of the V. cholerae autoinducer 1 (CAI1). In addition, the bacteria were grown in presence of: 900 nM CAI1 (Vibrio Cholerae MM920), 900 nM CAI1, 200 μM Tryptophol acetate and 200 μM Tyrosol acetate, and 200 μM Tryptophol acetate and 200 μM Tyrosol acetate.
Biofilms were grown under shaking conditions at 30° C. in 96-well plate (Thermo Scientific, Rochester, N.Y., USA). […] The stained cells were washed twice with PBS. Biofilm images were taken by CLSM (Plan-Apochromat 20×/0.8 M27, Zeiss LSM880, Germany).
For static biofilm assay, overnight cultures of V. cholerae strain MM920 was diluted 1:10 in fresh LB medium containing a final concentration of 100 μM from each Tryptophol acetate and Tyrosol acetate or DMSO (up to 1%) as control. […] One in absence of the V. cholerae autoinducer (CAI-1) and the other one in presence of 900 nM CAI-1. Biofilms were grown under non-shaking conditions at 37° C. in 96-well plate (Thermo Scientific, Rochester, N.Y., USA). […] The stained cells were washed twice with PBS. Biofilm images were taken by CLSM (Plan-Apochromat 20×/0.8 M27, Zeiss LSM880, Germany).
Biofilm matrixes of V. cholerae VC1 WT (FIGS. 23Ai and 23Aii), and the V. cholerae MM920 mutant (FIGS. 23Aiii and 23Aiv) were grown for 24 hours with or without tryptophol acetate in the growth medium, and stained using the BacLight® Dead/Live Kit to distinguish viable cells.

[2] = test system: Agrobacterium tumefaciens A136; test: Quorum sensing bioluminescence reporter assay; assay type: cell-based; conditions: C8 (3-oxo-C8-HSL) autoinducer
Procedure: Agrobacterium tumefaciens A136 pCF218 pMV26 culture was grown in Luria-Bertani broth (LB; Miller's broth) supplemented with 25 μg/ml of kanamycin and 4.5 μg/ml of tetracycline at 28-30° C. for 24 h. […] The overnight cultures were diluted to an absorbance density (OD600) of 0.05 by fresh LB medium. […] Luminescence was measured every 20 min for 19 h with continuous shaking at 30° C., using a Microtiter Plate Reader (Varioskan Flash, Thermo). Average luminescence values divided by OD600 values were plotted against the added compound concentration.
The effect of the Kefir biomass crude extract molecules on the following bacteria, A. tumefaciens A136, V. cholerae MM920 and V. harveyi MM30 were measured as described by Brenier et al. (2008). […]

[3] = Oxygen radical absorbance capacity (ORAC) assay; assay type: biochemical; conditions: AAPH-induced
Excerpt: (§1) FIGS. 34A-34B are graphs showing the anti-oxidation effect of tryptophol acetate and tyrosol acetate. Anti-oxidative capacity of the molecules as measured by DPPH (34A) and ORAC (34B) assays. 34A. The results are presented as a percentage of absorbance inhibition (517 nm, the absorbance maximum of DPPH) in the presence of tryptophol acetate (1) alone, tyrosol acetate alone (2) alone, and 1+2 together. 34B. Fluorescence decay of fluorescein induced by AAPH in the absence or presence of 1 and 2. Reaction mixtures containing fluorescein (60 nM) and AAPH (18.75 mM) in 200 μl of phosphate buffer (75 mM, pH 7.4) were incubated at 37° C. for 800 min. Changes in fluorescence intensity emitted by fluorescein were monitored. Results are presented as the net area under the curve (AUC). Each value is the mean±SD of triplicate experiments. ***p<0.0001
The ORAC experiment measures the quenching of fluorescein emission by peroxyl radicals, and inhibition of the oxidation reaction by molecular species added to the solution.

[4] = DPPH radical absorbance assay; assay type: biochemical; conditions: 517 nm
Excerpt: as §1
The inventors analyzed the anti-oxidation properties of the molecules (FIG. 34) as oxidation processes and generation of reactive oxidative species (ROS) are recognized as contributing to toxic effects in diverse diseases and pathological conditions. FIG. 34 depicts application of a spectrophotometric assay monitoring the visible absorbance of the 2,2-diphenyl-1-picrylhydrazyl (DPPH) radical, which is widely employed for evaluating the anti-oxidation activity of biomolecules. […]

[5] = test system: Pseudomonas aeruginosa LasR; test: Quorum sensing bioluminescence reporter assay; assay type: cell-based; conditions: C12 AI
Procedure: (§2) FIGS. 8A-8E are vertical bar graphs showing bioluminescence screening of quorum sensing (QS) inhibition or activation in the presence of synthetic Tryptophol acetate. The assay was performed using mutant bacteria lacking genes encoding autoinducers. Bacteria were also cloned with a bioluminescence reporter plasmid. N-acyl Homoserine Lactone (AHL) was used for activation (agonist) or inhibition (antagonist) of the following bacteria: Agrobacterium tumefaciens, which responds to the C8 autoinducer (AI), Vibrio cholerae responds to the CAI1 autoinducer, Pseudomonas aeruginosa RhlA responds to the C4 AI and Pseudomonas aeruginosa LasR responds to the C12 AI.
(§3) Bioluminescence assay was performed with mutant bacteria lacking the nucleotide sequences encoding the relevant autoinducers (AI). Additionally, the bacteria were cloned with bioluminescence reporter plasmids in order to measure their luminescence intensity when quorum sensing gene expression occurs. Ninety-six (96) well microtiter plate assays were used to assess AI activation (agonist) or inhibition (antagonist) of the following bacteria: Agrobacterium tumefaciens, which responds to the C8 autoinducer, and both Vibrio cholerae and Vibrio harveyi, which respond to the (S)-4,5-dihydroxy-2,3-pentanedione (DPD) autoinducer to communicate.

[6] = test system: Pseudomonas aeruginosa RhlA; test: Quorum sensing bioluminescence reporter assay; assay type: cell-based; conditions: C4 AI, high volume
Procedure: as §2, §3

amyloid beta (αβ1-42) = biological target: T1, amyloid beta (αβ1-42) (Homo sapiens, UniProt P05067); test: Thioflavin T (ThT) assay; assay type: biochemical; conditions: 30 μM amyloid beta, 12 hours of incubation
T1 construct: samples containing 30 μM amyloid beta [4(1-42)] in the absence or presence of tryptophol acetate
T1 sequence (P05067 672-713 limits assumed): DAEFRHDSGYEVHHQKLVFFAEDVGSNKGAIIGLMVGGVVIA
Procedure: ThT fluorescence measurements were taken at 37° C. using 96-well black plate on a Biotek Synergy H1 plate reader. Measurements were made on a samples containing 30 μM amyloid beta [4(1-42)] in the absence or presence of tryptophol acetate in different concentrations. A 120-μL aliquot of the aggregation reaction was mixed with 10 μM ThT in phosphate buffer (pH 7.4). The fluorescence intensity was measured every 30 min for 24 hr at λ excitation (λex)=440 and λ emission (λem)=485 nm.

| SMILES | V. cholerae toxin levels (V. cholerae toxin) | Biofilm volume, crystal violet (CV) assay ([1]; 0-200 μM, 24 hr) | Biofilm of V. cholerae MM920 with CAI-1 ([1]; 900 nM CAI-1 and 100 μM) | Biofilm matrix of V. cholerae VC1 WT ([1]; 100 μM, 24 hours) | Effect on QS in A. tumefaciens [2] | Fluorescence decay of fluorescein [3] | Quenching of DPPH absorbance [4] [%] | Effect on QS in P. aeruginosa (LasR) [5] | Effect on QS in P. aeruginosa (RhlA) [6] | Amyloid beta fibrillation (ThT) (amyloid beta (αβ1-42)) | V. cholerae biofilm production ([1]; 100 μM) |
| --- | --- | --- | --- | --- | --- | --- | --- | --- | --- | --- | --- |
| CC(=O)OCCc1c[nH]c2ccccc12 [Tryptophol acetate] | reduce V. cholerae toxin levels in a dose dependent manner | increased biofilm volume | re-formation of a dense and uniform biofilm layer | significantly denser biofilm | inhibits QS | around 400 min | 10 | low inhibition effect | low inhibition effect | effectively reduced amyloid beta fibrillation; also recorded: reduced αβ1-42 fibrillation | – |
| CC(=O)OCCc1ccc(O)cc1 [Tyrosol acetate] | inhibit; also recorded: reduction of toxin production by V. cholerae in a dose dependent manner | – | – | – | – | ~800 min | ~3 | – | – | – | inhibit |
